Values joined by “and” are separate entries in the source; they are usually repeats but may differ in a detail not shown here. Equal entries are not always repeated. Where two headings read alike, the source gives them in different places.
What was measured:
Assay type in all cases: cell-based, Hepatitis B virus
[1] = system: wild-type HBV baculovirus; assay: Antiviral testing with wild-type HBV baculovirus in HepG2 cells (Example 15, Southern blot densitometry); conditions: for inhibition at 1 µM / IC50: Hepatitis B virus, wt HBV; for inhibition at 1 µM: HepG2, ds HBV DNA band density vs untreated controls, estimated from fitted curve, negative = stimulation of replication; for IC50: ds HBV DNA bands, HepG2 cells
Protocol: (§1) HepG2 cells were seeded at approximately 20-40% confluency and then were grown for 16-24 hours before infection. On the day of infection, triplicate plates of cells were trypsinized, and viable cell number was determined with a hemocytometer using Trypan blue exclusion. Average cell counts were calculated and used to determine the volume of high-titer viral stock necessary to infect cells at the indicated moi. HepG2 cells were washed one time with serum-free MEM to remove traces of serum. Baculovirus was diluted into MEM without serum to achieve the appropriate moi using volumes of 1.0, 0.5, and 0.25 ml to infect 100-mm, 60 mm, and 35-mm dishes, respectively. Baculovirus was adsorbed to HepG2 cells for one hour at 37° C. with gentle rocking every 15 minutes to ensure that the inoculum was evenly distributed. The inoculum was then aspirated and HepG2 cells were washed two times with phosphate-buffered saline and refed MEM-FBS with or without various concentrations of agents.
(§2) HBV core particles were isolated from the cytoplasmic fraction of HepG2 cells lysed in 0.5% w/v NP-40. Cytoplasmic extracts were adjusted to 10 mmol/l McC12 and unprotected DNA was removed by an incubation to […] for 1.5 hours at 37° C. Following sequential phenol and chloroform extractions, nucleic acids were recovered by ethanol precipitation. Nucleic acids were resuspended in 50 μl/l TE (10 mmol/l Tris, 1 mmol/l ethylenedianinetetraacetic acid), normalized by OD260, and digested with 100 μg/ml RNase (Boehringer Mannheim, Indianapolis, Ind.) for one hour at 37° C. before analysis by electrophoresis and Southern blotting. A BioRad GS-670 imaging densitometer and the Molecular Analyst software (BioRad, Hecules Calif.) was used to analyze suitable exposures of Southern blots. Densitometry data was fitted to logistic dose response curves using the TableCurve2D software package from Jandel Scientific. Logistic dose response equations were used to calculate IC50 and IC90 values and co-efficients of variation.
(§3) 3TC and PCV were a gift from Klaus Esser, SmithKline Beecham, Collegeville, Pa. PMEA was obtained from Gilead (Foster City, Calif.). 3TC was resuspended in sterile water, aliquoted, and frozen at −20° C. to avoid repeated freezing and thawing of the drug. PMEA was resuspended in sterile water after the pH was adjusted to 7.0 with NaOH. PCV was resuspended in dimethyl sulphoxide. Medium containing 3TC was prepared daily as needed using fresh aliquots of 3TC. In experiments in which 3TC treatment was initiated after viral infection, HepG2 cells were exposed to the indicated concentration of 3TC immediately after infection with HBV baculovirus. In experiments utilizing pretreatment with 3TC, cells were fed medium containing 3TC 16 hours prior to HBV baculovirus infection, HBV baculovirus infection was also carried out in medium containing 3TC, and cells were refed fresh medium containing 3TC immediately after completion of the infection and washing procedures. Treatment with PMEA and PCV were conducted in a similar manner.
The dose effect of 3TC and PMEA, on wild-type HBV is shown graphically in FIG. 6 (A, B,) and a Southern Blot of intracellular HBV replicative intermediates and extracellular virus produced by HepG2 cells transduced with wild-type HBV-baculovirus in the presence of increasing concentrations of PCV is shown in FIG. 6C and the IC50 for each antiviral agent is shown in Table 2.

[2] = system: wild-type (WT) recombinant HBV-baculovirus; assay: Antiviral testing, wild-type (1.3x genomic length) recombinant HBV-baculovirus in HepG2 cells (Example 17)
Protocol: as §1, §2
(§4) Conditioned medium was collected from HepG2 cells and subjected to centrifugation at 6,000 g for five minutes to remove cellular debris. HBV particles were precipitated with 10% w/v PEG 8000 and were concentrated by centrifugation at 12,000 ×g. Viral pellets were resuspended us 1 ml of MEM-FBS and divided into two aliquots. One set of aliquots was treated with 750 μg/ml Pronase for one hour and then with […] DNase 1 for one hour. Both sets of aliquots were then digested with Proteinase K, and extracted with phenol and chloroform. DNA was precipitated with 0.1 volume of 3 mol/l sodium acetate and 1 volume of isopropanol. Ten micrograms of transfer RNA was added as a carrier during precipitation. Pellets were resuspended in 25 μl of TE and digested with 0.5 mg/ml RNase for one hour. DNA was then analyzed by electrophoresis and Southern blotting.
as §3

[3] = system: precore (G1896A) recombinant HBV-baculovirus; assay: Antiviral testing of the precore mutant (G1896A) HBV baculovirus in HepG2 cells (Example 17)
Protocol: as §1, §2, §4, §3

[4] = system: L526M/M550V HBV baculovirus; assay: Antiviral testing with L526M/M550V HBV baculovirus in HepG2 cells (Example 15); conditions: for inhibition at 1 µM / IC50: Hepatitis B virus, dual (L526M/M550V) HBV; for inhibition at 1 µM: HepG2, ds HBV DNA band density vs untreated controls, estimated from fitted curve, negative = stimulation; for IC50: ds HBV DNA bands, HepG2 cells
Protocol: as §1, §2, §3

[5] = system: L526M HBV baculovirus; assay: Antiviral testing with L526M HBV baculovirus in HepG2 cells (Example 15); conditions: for inhibition at 1 µM / IC50: Hepatitis B virus
Protocol: as §1, §2, §3

[6] = system: M550I HBV baculovirus; assay: Antiviral testing with M550I HBV baculovirus in HepG2 cells (Example 15); conditions: for inhibition at 1 µM / IC50: Hepatitis B virus, 550 (M550I) HBV; for inhibition at 1 µM: ds HBV DNA band density vs untreated controls, estimated from fitted curve, negative = stimulation; for IC50: ds HBV DNA bands
Protocol: as §1, §2, §3

[7] = system: M550I recombinant HBV-baculovirus; assay: Antiviral testing, M550I recombinant HBV-baculovirus in HepG2 cells (Example 17); conditions: intracellular single-stranded HBV DNA, NDR = no dose response
Protocol: as §1
(§5) HBV core particles were isolated from the cytoplasmic fraction of HepG2 cells lysed in 0.5% w/v NP-40. […]
(§6) Conditioned medium was collected from HepG2 cells and subjected to centrifugation at 6,000 g for five minutes to remove cellular debris. […] DNA was then analyzed by electrophoresis and Southern blotting. […]

[8] = system: Precore/L526M/M550V recombinant HBV-baculovirus; assay: Antiviral testing, Precore/L526M/M550V recombinant HBV-baculovirus in HepG2 cells (Example 17); conditions: NDR = no dose response
Protocol: as §1, §2
as §4, with “Pellets were resuspended in 25 μl of TE and digested with 0.5 mg/ml RNase for one hour.” left out, “blotting. […]” for “blotting.”

[9] = system: any HBV/baculovirus variant encoding the mutations at M550I or L526M/M550V; assay: Southern blots of HBV DNA from HepG2 cells transduced with lamivudine-resistant recombinant HBV-baculovirus variants (Example 17); conditions: intracellular and extracellular HBV DNA, no dose response could be plotted
Protocol: as §1, §5, §6

[10] = system: L526M/M550V recombinant HBV-baculovirus; assay: Antiviral testing, L526M/M550V recombinant HBV-baculovirus in HepG2 cells (Example 17); conditions: intracellular single-stranded HBV DNA, NDR = no dose response
Protocol: as §1, §5, §6

[11] = system: Precore/M550I recombinant HBV-baculovirus; assay: Antiviral testing, Precore/M550I recombinant HBV-baculovirus in HepG2 cells (Example 17); conditions: NDR = no dose response
Protocol: as §1, §2
as §4, with “Pellets were resuspended in 25 μl of TE and digested with 0.5 mg/ml RNase for one hour.” left out, “blotting. […]” for “blotting.”

[12] = extracellular relaxed circular HBV DNA
[13] = intracellular single-stranded HBV DNA

Nc1ccn([C@@H]2CS[C@H](CO)O2)c(=O)n1 [Lamivudine, (−)-b-L-2′,3′-dideoxy-3′-thiacytidine]
inhibition at 1 µM [1]: 99.6%
IC50 [1]: 0.009 µM
Resistance Factor [1]: 1
IC50 ([2]; Hepatitis B virus, HepG2, WT, intracellular single-stranded HBV DNA, individual experiments behind the average, read-out: IC50, single experiments, IC SS): 0.067 µM
IC50 ([2]; Hepatitis B virus, HepG2, read-out: IC50 (μM), EC RC, WT, extracellular relaxed circular HBV DNA, averages where footnoted): 0.018 µM
IC50 ([2]; Hepatitis B virus, HepG2, read-out: IC50 (μM), IC SS, WT, intracellular single-stranded HBV DNA, averages where footnoted): 0.0697 µM
IC50 ([2]; WT, extracellular relaxed circular HBV DNA, individual experiments behind the average, read-out: IC50, single experiments, EC RC): 0.022 µM and 0.0293 µM and 0.0095 µM
IC50 ([2]; WT, intracellular single-stranded HBV DNA, individual experiments behind the average, read-out: IC50, single experiments, IC SS): 0.085 µM and 0.0572 µM
IC50 ([3]; Hepatitis B virus, HepG2, Precore (G1896A), extracellular relaxed circular HBV DNA, individual experiments behind the average, read-out: IC50, single experiments, EC RC): 0.012 µM
IC50 ([3]; Hepatitis B virus, HepG2, read-out: IC50 (μM), EC RC, Precore (G1896A), extracellular relaxed circular HBV DNA, averages where footnoted): 0.011 µM
IC50 ([3]; Hepatitis B virus, HepG2, read-out: IC50 (μM), IC SS, Precore (G1896A), intracellular single-stranded HBV DNA, averages where footnoted): 0.0207 µM
IC50 ([3]; Precore (G1896A), extracellular relaxed circular HBV DNA, individual experiments behind the average, read-out: IC50, single experiments, EC RC): 0.01 µM
IC50 ([3]; Precore (G1896A), intracellular single-stranded HBV DNA, individual experiments behind the average, read-out: IC50, single experiments, IC SS): 14 nM (2×) and 32 nM
inhibition at 1 µM [4]: -15%
IC50 [4]: 86.2 µM
Resistance Factor [4]: 9578
inhibition at 1 µM ([5]; HepG2, 526 (L526M) HBV, ds HBV DNA band density vs untreated controls, estimated from fitted curve, negative = stimulation, read-out: Inhibition at 1 μM): 85.8%
IC50 ([5]; 526 (L526M) HBV, ds HBV DNA bands, HepG2 cells, read-out: IC50): 0.03 µM
shift in the IC50 compared to the wild-type ([5]; L526M vs wild-type, FIG. 7A): > 0.5 log
Resistance Factor ([5]; {}): 3
inhibition at 1 µM ([6]; HepG2): 26.7%
IC50 ([6]; HepG2 cells, read-out: IC50): 3.8 µM
Resistance Factor [6]: 422

Nc1nc2c(ncn2CCC(CO)CO)c(=O)[nH]1 [Penciclovir, 9-[4-hydroxy-3-(hydroxymethyl)but-1-yl]guanine]
inhibition at 1 µM [1]: 7%
IC50 [1]: 11.5 µM
effect on wild-type HBV replication ([1]; dose effect, FIG. 6, result in words): modest effect
Resistance Factor [1]: 1
IC50 (μM), IC SS [7]: NDR
IC50 ([2]; Hepatitis B virus, HepG2, WT, extracellular relaxed circular HBV DNA, averages where footnoted, read-out: IC50 (μM), EC RC): 23 µM
IC50 ([2]; Hepatitis B virus, HepG2, WT, intracellular single-stranded HBV DNA, averages where footnoted, read-out: IC50 (μM), IC SS): 226 µM
IC50 (μM), EC RC [8, 12]: NDR
IC50 (μM), IC SS [8, 13]: NDR
IC50 ([3]; Hepatitis B virus, HepG2, Precore (G1896A), extracellular relaxed circular HBV DNA, averages where footnoted, read-out: IC50 (μM), EC RC): 6 µM
IC50 ([3]; Hepatitis B virus, HepG2, Precore (G1896A), intracellular single-stranded HBV DNA, averages where footnoted, read-out: IC50 (μM), IC SS): 85 µM
sensitivity of G1896A HBV compared with wild type HBV ([3]; result in words): may be more sensitive
change in sensitivity of L526M/M550V ([4]; FIG. 8A-8C, result in words): no substantial change
inhibition at 1 µM [4]: -10%
IC50 [4]: 370 µM
Resistance Factor [4]: 32
Resistance Factor ([5]; 526 (L526M) HBV, mutant IC50 divided by wt IC50, nearest integer): 9
change in sensitivity of L526M compared to wild-type ([5]; FIG. 7A-7C, result in words): No significant change
IC50 ([5]; HepG2): 103 µM
inhibition at 1 µM ([5]; HepG2, read-out: Inhibition at 1 μM): -3%
resistance conferred by M550I or L526M/M550V changes [9]: high degree of resistance
IC50 (μM), IC SS [10]: NDR
IC50 (μM), EC RC [11, 12]: NDR
IC50 (μM), IC SS [11, 13]: NDR
inhibition at 1 µM ([6]; HepG2): -24%
IC50 ([6]; HepG2, extrapolated value, read-out: IC50 (μM), extrapolated value): 1220 µM
Resistance Factor [6]: 106

Source: patent publication US6969583B2, “Method for detecting variant HBV” (Melbourne Health, priority 2000, dated 2005)
